Test results published in patent US10538561B2, “Peptide for treating inflammatory diseases” (priority 2015, dated 2020).

Legend:
[1] = molecular target: PRKCA (PKC alpha) (Homo sapiens, UniProt P17252); experiment: Biochemical kinase assay PRKCA
Description: Test system: cell free assays; test items: IS181; concentrations tested: 1 ng/ml-5000 μg/ml; Kinases: a) Cell free assays: EGFR (ErbB1); FLT1 (VEGFR1); JAK1; JAK3 MAP2K1 (MEK1); PDGFRA (PDGFR alpha); PRKCA (PKC alpha); b) cell based assay: JAK-STAT.

[2] = test system: IL-8; experiment: LPS+PMA stimulated IL-8 secretion in HaCaT; type: cell-based, Human; settings: for IL-8 % decrease with respect to LPS + PMA / IL-8 Conc: HaCaT + LPS + PMA, 24 h
Description: Effect on pro-inflammatory cytokines against TNF-α/LPS+PMA stimulation: TNF-α; IFN-γ; TARC; TSLP; IL-6; IL-8: Cell lines: Human keratinocytes (HaCaT); test item (TI); IS181; experimental steps: pre-treatment of cells with TI for 2 hours; stimulation with TNF-α: 20 ng/ml; stimulation with LPS+PMA-10 μg/ml LPS+40 ng/ml PMA; supernatant collection for cytokine analysis after 24 hours; concentration range: 0.1 μg/ml-100 μg/ml (duplicate wells); cytokines: TNF-α; IFN-γ; TARC; TSLP; IL-6; IL-8. Method of estimating cytokines: ELISA; positive control: dexamethasone.
Cell line: HaCaT (Human Keratinocytes); TI Treatment regimen: Pretreatment for 2 h; TI Concentration range: 0.1 μg/ml-100 μg/ml (duplicate wells); TNF-α stimulation: 20 ng/ml; LPS+PMA stimulation: 10 μg/ml LPS+40 ng/ml PMA; Time point for supernatants collection: 24 h; Method of estimation: ELISA; Positive control: Dexamethasone

[3] = test system: Human endothelial cells (EA.hy 926); experiment: Inhibition of endothelial cell migration (wound); type: cell-based; settings: for % Inhibition of migration with respect to respective 0 h control: EA.hy926, 14 h
Description: Cell line: Human endothelial cells (EA.hy 926); test item: IS 181; treatment regimen: single addition; concentration range: 0.1 μg/ml-1 mg/ml; sera condition: medium containing 10% FBS. […] The cells were then subjected to serum starved with medium containing 1% FBS for 24 hours. 24 hours post serum starvation, the wounds (straight line) were created in the middle of the well using a sterile 200 μl pipette tip. Cells were washed twice using DMEM followed by treatment with different concentrations of IS 181 in DMEM containing 10% FBS. Images of wound were taken at 0 h and 14 h at three points in single well and distance of wound closure was measured using Image J software. End point: image analysis of cell migration of different concentrations of IS 181 treated cells at 0 hour and after 14 hours of treatment. Percentage inhibition in cell migration of different concentrations of IS 181 treated cells were calculated after 14 h of treatment with respect to respective 0 hours (FIG. 13). […] (FIGS. 14A-14B).

[4] = test system: Human monocytic cell line (THP-1); experiment: Cell viability of THP-1 (MTT); type: cell-based
Description: (§1) Cell lines: Human monocytic cell line (THP-1); test item: IS181: treatment regimen; single addition—24 hours; concentration range: 10 μg/ml-5000 μg/ml. A) Identification of non-cytotoxic concentrations: THP-1 cells were treated with IS181 for 24 hours; effect on cell viability was assessed by MTT assay; concentrations leading to >75% cell viability were selected for IL-23 assay. […] Positive control: curcumin. […] Since supernatants corresponding to 5 concentrations were to be tested for […], we also tested 1 mg/ml.

[5] = Cell viability of THP-1 (MTT); type: cell-based, Human; settings: human, THP-1 monocytic cells, THP-1, 24 h, read-out: Cell viability (wrt Untreated)
Description: as §1

[6] = test system: IL-17; experiment: IL-17 secretion in ConA stimulated splenocytes; type: cell-based, mouse; set-up: inhibition of IL-17 secretion as compared to Control (ConA) levels: dose or concentration left out as unconfirmed; settings: for % Inhibition of IL-17 wrt Control (ConA) / Conc. of IL-17: splenocytes + ConA, 24 h
Description: Cell lines: mouse splenocytes; test item: IS181; treatment regimen: single addition—24 hours; concentration range: 10 μg/ml-5000 μg/ml.A) Identification of non-cytotoxic concentrations: splenocytes were treated with IS181 for 24 hours. Effect on cell viability was assessed by MTT assay. Concentrations leading to >75% cell viability were selected for IL-17 assay. B) IL-17 assay: splenocytes were treated with IS181 in presence of ConA stimulation for 24 hours. Supernatants were collected and stored at −20° C. till analysed. Levels of IL-17 were analysed in supernatants by ELISA. Percent inhibition of IL-17 secretion was calculated with reference to ConA treated levels. Positive control: curcumin.

[7] = test system: Human Keratinocytes (HaCaT); experiment: Annexin-V assay; type: cell-based; settings: 48 h
Description: Cell lines: Human Keratinocytes (HaCaT); test Item (TI): IS181; Treatment regimen: treated twice (once after 24 hours)-48 hours; concentration range: 100 6 g/ml-5000 6 g/ml. […] (c) cells were treated with IS181 for 24 hours; (d) after 24 hours, cells were again treated with IS181 for 24 hours; (e) after 48 hours of first treatment, cells were stained with Annexin-V reagent and acquired on flow cytometer; (f) fold increase in apoptotic cells (early and late apoptotic) and necrotic cells was calculated with respect to untreated control cells. Positive control: Curcumin. […] (FIG. 4)

inhibition at 10 µg/mL ([1]; 10 μg/ml): 20%
inhibition at 50 µg/mL ([1]; cell free, 50 μg/ml): 20%
inhibition at 100 µg/mL ([1]; cell free, 100 μg/ml): 8%
inhibition at 250 µg/mL ([1]; cell free, 250 μg/ml): -8%
inhibition at 500 µg/mL ([1]; cell free, 500 μg/ml): -17%
inhibition at 1000 µg/mL ([1]; cell free, 1000 μg/ml): -19%
inhibition at 2000 µg/mL ([1]; cell free, 2000 μg/ml): -80%
Substance: H-WVQRVVEKFLK-OH [IS181, H-Trp-Val-Gln-Arg-Val-Val-Glu-Lys-Phe-Leu-Lys-OH]
IL-8 inhibition ([2]; HaCaT): good extent of TSLP and IL-8 inhibition
IL-8 % decrease with respect to LPS + PMA ([2]; 0.1 μg/ml): 8.8%
IL-8 Conc ([2]; 0.1 μg/ml): 357.4 pg/mL
IL-8 % decrease with respect to LPS + PMA ([2]; 1 μg/ml): 19.8%
IL-8 Conc ([2]; 1 μg/ml): 314.5 pg/mL
IL-8 % decrease with respect to LPS + PMA ([2]; 5 μg/ml): 4.3%
IL-8 Conc ([2]; 5 μg/ml): 375.3 pg/mL
IL-8 % decrease with respect to LPS + PMA ([2]; 10 μg/ml): 19.4%
IL-8 Conc ([2]; 10 μg/ml): 316.1 pg/mL
IL-8 % decrease with respect to LPS + PMA ([2]; 100 μg/ml): −18.1%
IL-8 Conc ([2]; 100 μg/ml): 463.1 pg/mL
inhibition of migration of EA.hy926 cells ([3]; 10 μg/ml-1 mg/ml): 17%-54%
% Inhibition of migration with respect to respective 0 h control ([3]; 0.1 μg/ml): 0%
% Inhibition of migration with respect to respective 0 h control ([3]; 1 μg/ml): 0%
% Inhibition of migration with respect to respective 0 h control ([3]; 10 μg/ml): 17%
% Inhibition of migration with respect to respective 0 h control ([3]; 50 μg/ml): 34%
% Inhibition of migration with respect to respective 0 h control ([3]; 100 μg/ml): 41%
% Inhibition of migration with respect to respective 0 h control ([3]; 1 mg/ml): 54%
cytotoxicity ([4]; THP-1, 10 μg/ml-500 μg/ml): 25%
cytotoxicity ([4]; THP-1, 1 mg/ml): 38.7%
cytotoxicity ([4]; THP-1, 5 mg/ml): 85%
viability at 24 h, 10 μg/ml ([5]; 10 μg/ml): 81.2%
viability at 24 h, 50 μg/ml ([5]; 50 μg/ml): 84.2%
viability at 24 h, 100 μg/ml ([5]; 100 μg/ml): 90.4%
viability at 24 h, 500 μg/ml ([5]; 500 μg/ml): 88.5%
viability at 24 h, 1 mg/ml ([5]; 1 mg/ml): 61.3%
viability at 24 h, 5 mg/ml ([5]; 5 mg/ml): 15%
inhibition of IL-17 secretion as compared to Control (ConA) levels ([6]; splenocytes): 48.2%-71.4%
% Inhibition of IL-17 wrt Control (ConA) ([6]; 10 μg/ml): 71.4%
Conc. of IL-17 ([6]; 10 μg/ml): 13.3 pg/mL
% Inhibition of IL-17 wrt Control (ConA) ([6]; 50 μg/ml): 59.5%
Conc. of IL-17 ([6]; 50 μg/ml): 18.8 pg/mL
% Inhibition of IL-17 wrt Control (ConA) ([6]; 100 μg/ml): 62.1%
Conc. of IL-17 ([6]; 100 μg/ml): 17.6 pg/mL
% Inhibition of IL-17 wrt Control (ConA) ([6]; 500 μg/ml): 48.2%
Conc. of IL-17 ([6]; 500 μg/ml): 24.1 pg/mL
% Inhibition of IL-17 wrt Control (ConA) ([6]; 1000 μg/ml): 58.8%
Conc. of IL-17 ([6]; 1000 μg/ml): 19.2 pg/mL
increase in late apoptotic cells vs untreated ([7]; 2000 μg/ml): 2.1 fold
increase in necrotic cells vs untreated ([7]; 2000 μg/ml): 7.9 fold
increase in early apoptotic cells vs untreated ([7]; 5000 μg/ml): 2.3 fold
increase in late apoptotic cells vs untreated ([7]; 5000 μg/ml): 5.3 fold
increase in necrotic cells vs untreated ([7]; 5000 μg/ml): 4.5 fold
